Reference: patent US7608604B2, “Antiparasitic agents” (Pfizer Limited, priority 2007, dated 2009)

Test system: Haemonchus contortus L3
Experiment: Haemonchus contortus L3 (HcL3) in vitro test
Format: cell-based
Conditions: minimum effective dose
Description: The Haemonchus contortus L3 (HcL3) test is used to measure the biological activities of the compounds claimed. The assay involves in vitro testing against H. contortus conducted according to the following general procedure.
HcL3 larvae were collected from infected sheep and, after cleaning, stored in water at 12° C. for up to one month. Viable infective larvae were exsheathed using 10% hypochlorite in Glucose Tyrodes balanced salt solution containing antibiotics and resuspended in basal medium (20 g/l bacto-tryptone, 5 g/l yeast extract, 57 g/l glucose, 0.8 g/l di-Potassium hydrogen orthophosphate, 0.8 g/l potassium dihydrogen orthophosphate and […] Hepes with antibiotics). 95 μl worm suspension was added to each well of a 96 well plate.
Test compounds were dissolved in dimethylsulfoxide to give a working stock solution of 20 mg/ml. The stock concentration was diluted 1:10 in Basal media to give 2.0 mg/ml (10% DMSO). 5 μl of the stock compound solution was added to the worm suspension to give a final concentration of 100 μg/ml. Plates were sealed with pressure sensitive film and incubated at 37° C. Observations were made 2 hrs, 24 hrs, 48 hrs, 72 hrs and 4 days post-treatment using an inverted microscope. Activity was recorded if a significant proportion of the worms were dead or adversely affected by the compound when compared to the control well containing 1% DMSO. Compounds were initially tested at 100 μg/ml, wherefrom relevant dose responses (100, 30, 10, 3, 1, 0.3, 0.1 μg/ml) were conducted in duplicate experiments to generate n=2. Data was recorded as minimum effective dose.

[1] = table of Examples 13a-42, 13a/b, 27a/b, 29a/b, 33a/b tested as mixtures of regioisomers

CC(C#N)(COc1cc(F)cc(C#N)c1)NC(=O)c1ccc(S(F)(F)(F)(F)F)cc1 (stereo not shown) [Example 48, N-[1-Cyano-2-(3-cyano-5-fluorophenoxy)-1-methylethyl]-4-(pentafluorothio)benzamide]
H.c. (L3) MED (table of Examples 45-49): 3 µg/mL

CC(C#N)(COc1ccc(C(N)=O)cc1Cl)NC(=O)c1ccc(S(F)(F)(F)(F)F)cc1 (stereo not shown) [Example 49]
H.c. (L3) MED (table of Examples 45-49): 10 µg/mL

CC(C#N)(COc1c(F)cc(C#N)cc1F)NC(=O)c1ccc(S(F)(F)(F)(F)F)cc1 (stereo not shown) [Example 51, N-[1-Cyano-2-(4-cyano-2,6-difluorophenoxy)-1-methylethyl]-4-(pentafluorothio)benzamide]
H.c. (L3) MED (table of Examples 51-52): 3 µg/mL

CC(C#N)(COc1cccc(Cl)c1C(F)(F)F)NC(=O)c1ccc(S(F)(F)(F)(F)F)cc1 (stereo not shown) [Example 52, N-{2-[3-Chloro-2-(trifluoromethyl)phenoxy]-1-cyano-1-methylethyl}-4-(pentafluorothio)benzamide]
H.c. (L3) MED (table of Examples 51-52): 10 µg/mL

N-[2-(2-Chloro-4-fluorophenoxy)-1-cyano-1-methylethyl]-4-(pentafluorothio)benzamide [Example 13a]
H.c. (L3) MED [1]: 1 µg/mL

N-[2-(3-Chloro-4-fluorophenoxy)-1-cyano-1-methylethyl]-4-(pentafluorothio)benzamide [Example 13b]
H.c. (L3) MED [1]: 1 µg/mL

N-[2-(4-Chlorophenoxy)-1-cyano-1-methylethyl]-(pentafluorothio)benzamide [Example 15]
H.c. (L3) MED [1]: 30 µg/mL
